Experimental data taken from US4791215A, “Derivatives of glutamic acid and aspartic acid” (priority 1984, dated 1988).
Where “and” joins values, the source holds several entries; their conditions need not be identical. Equal values may be shown once.

Tests used:
[1] = tested on: CCK-8 induced contraction of guinea pig gall bladder; test: Anti-CCK-8 activity on gall bladders in situ; format: in vivo; conditions: for percentage inhibition of contracting effect of CCK-8: single experiments
Experimental: In order to confirm the evidence of the studies in vitro several of the more interesting compounds were tested in vivo on guinea pig gall baldders in situ.
The method used is that described by Ljungberg (Svensk. Farm. Tidskr. 68, 351-354, 1964).
Guinea pigs having a weight of about 400 g, anaesthetised with urethane, were used; the substances under examination were administered intraveneously into the jugular vein.
The responses of the gall bladders to the substances under test were detected by means of a force transducer and recorded by means of a microdynamometer. The optimum contracting dose was chosen as 10 ng/kg of CCK-8. The antagonist compounds tested were administered in increasing doses so as to enable the calculation of an ED50 value, that is in the dose (in mg/kg i.v.) capable of inhibiting 50% of the contracting effect of 10 ng/kg i.v. of CCK-8.
The results obtained are given in Table 7 below, which gives the doses used and the effects obtained expressed as a percentage inhibition of the contracting effect of CCK-8 as well as the ED50 found.

[2] = tested on: intestinal transit of carbon; test: Anti-spastic activity, vegetable carbon intestinal transit test; format: in vivo, mice; conditions: Mus musculus, ip; read-out: antispastic activity ED50 (dose reducing intestinal transit of carbon by 50%)
Description: The anti-spastic activity which the present compounds exert on the entire digestive system is also notable. Measured in mice with the vegetable carbon test (rate of transit through the stomach and the intestine), this activity is illustrated in the following table.
claimed administered intraperitoneally in mice. Values
expressed as the ED 50 in mg/kg, that is the dose which
reduces the intestinal transit of carbon by 50%

morphine analgesia = test: Increase in analgesia of morphine, Tail Flick Test (Experiment 1); format: in vivo, rats; conditions: for percentage variation of latency of pain sensation / M (10-90) ± SE, mean percentage variation of latency: compound 10 mg/kg i.p. + morphine 2 mg/kg; for M (10-90) ± SE, mean percentage variation of latency: mean 10-90 min; for Power ratio with respect to morphine alone: rat, in vivo
In short: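 Tail-flick latency to 75 °C radiant heat, capped at 8 s, measured in male non-fasted rats weighing 150-200 g. Percentage change per animal derived from pre-treatment baseline versus post-drug readings at 10-90 min (10, 20, 30, 45, 60, 90 min).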

biliary flow = test: Biliary flow (choleretic activity); format: in vivo, rat
Experimental: The following experiment was carried out: a cannula was inserted in the bile duct of a rat anaesthetised with urethane, together with a small needle connected to a polythene tube, and the bile liquid was thus collected. The collection was carried out for one hour before the intravenous administration of the tested compounds and for a further two hours after administration, the samples collected at 30 minute intervals being weighed.
In order to prevent possible dehydration of the animals, 0.5 ml of physiological solution was administered at 30 minute intervals up to a total of 3 ml.

[3] = tested on: tolerance induced by morphine; test: Antagonism to development of tolerance to repeated morphine HCl, Tail Flick Test (Experiment 5); conditions: compound 10 mg/kg + morphine 5 mg/kg i.p.
Experimental: Experiment No. 5: Antagonism of several products of the invention to the development of tolerance induced in rats by the repeated administration of morphine HCl.
Several of the compounds of the invention were examined to determine their possible capacity to antagonise the development of tolerance induced by morphine. Groups of 6 male rats having a weight of about 200-250 grams were used.
At intervals of 24 hours from the first treatment (time 0) each animal (except the control group treated physiologically) received 5 mg/kg of morphine hydrochloride i.p. together with 10 mg/kg i.p. of the compounds indicated (with the exception of the group treated solely with morphine).
The determination of the pain threshold was effected 15', 30', 45' and 60' from the treatment by the Tail Flick Test.

[4] = tested on: endogenous opiates analgesia; test: Analgesic activity of endogenous opiates released by transcutaneous shock, Tail Flick Test (Experiment 3); format: in vivo, rats
Experimental: Experiment No. 3: Influence of several of the compounds of the invention on the analgesic activities of endogenous opiates released by transcutaneous shock in rats and measured by the Tail Flick Test
The method is that described by Lewis et al. J. Neurosc. 1, 358 […]. Male rats which have not fasted and have a weight of about 200 g are used.
The animals are stressed by the application of a 60 Hz-2.5 mA current to the front leg in pulses of a duration of 1 second every 5 seconds for 20 minutes.
This stress regime induces the release of endogenous opiates.

[5] = tested on: enkephalinamide (DALA) analgesia; test: Potentiation of DALA (enkephalinamide) analgesia, i.c.v., Tail Flick Test (Experiment 4); format: in vivo, rats; design: scale not given here
Description: Experiment No. 4: Potentiation of the analgesic activities of enkephalins induced by some of the compounds of the invention. […]

[6] = compound 1 mg/kg iv + stress, 5'
[7] = compound 1 mg/kg iv + stress, 10'
[8] = compound 1 mg/kg iv + stress, 15'
[9] = compound 3 mg/kg iv + stress, 5'
[10] = compound 3 mg/kg iv + stress, 10'
[11] = compound 3 mg/kg iv + stress, 15'
[12] = DALA 10 + compound 0.003 μg/kg ICV, 10'
[13] = DALA 10 + compound 0.003 μg/kg ICV, 20'
[14] = DALA 10 + compound 0.003 μg/kg ICV, 30'
[15] = DALA 10 + compound 0.003 μg/kg ICV, 45'
[16] = DALA 10 + compound 0.003 μg/kg ICV, 60'
[17] = DALA 10 + compound 0.003 μg/kg ICV, 90'
[18] = DALA 10 + compound 0.003 μg/kg ICV
[19] = DALA 10 + compound 0.01 μg/kg ICV, 10'
[20] = DALA 10 + compound 0.01 μg/kg ICV, 20'
[21] = DALA 10 + compound 0.01 μg/kg ICV, 30'
[22] = DALA 10 + compound 0.01 μg/kg ICV, 45'
[23] = DALA 10 + compound 0.01 μg/kg ICV, 60'
[24] = DALA 10 + compound 0.01 μg/kg ICV, 90'
[25] = DALA 10 + compound 0.01 μg/kg ICV

CCCCCN(CCCCC)C(=O)C(CCC(=O)O)NC(=O)c1ccc(Cl)c(Cl)c1 (stereo not shown) [Compound C-7]
percentage inhibition of contracting effect of CCK-8 ([1]; 0.003 mg/kg i.v.): -10.6%
percentage inhibition of contracting effect of CCK-8 ([1]; 0.03 mg/kg i.v.): -62.1% and -57.0% and -59.2%
block of gall bladder contractions induced by CCK-8 ([1]; 0.1 mg/kg): can block gall bladder contractions induced by CCK-8
ED50 ([1]; Cavia porcellus, iv, CCK-8 10 ng/kg i.v., read-out: ED50 (inhibition of 50% of contracting effect of CCK-8)): 0.02 mg/kg
ED50 [2]: 16.8 mg/kg
percentage variation of latency of pain sensation (morphine analgesia; 10'): 67.9 ± 14.3%
percentage variation of latency of pain sensation (morphine analgesia; 20'): 71.5 ± 17.6%
percentage variation of latency of pain sensation (morphine analgesia; 30'): 79.4%
percentage variation of latency of pain sensation (morphine analgesia; 45'): 84.6 ± 10.5%
percentage variation of latency of pain sensation (morphine analgesia; 60'): 92.9 ± 4.1%
percentage variation of latency of pain sensation (morphine analgesia; 90'): 72.6 ± 7.0%
M (10-90) ± SE, mean percentage variation of latency (morphine analgesia): 78.2 ± 9.4%
Power ratio with respect to morphine alone (morphine analgesia): 2.62

CCCN(CCC)C(=O)C(CCC(=O)O)NC(=O)c1cccc(C#N)c1 (stereo not shown) [Compound C-20]
ED50 [2]: 77.5 mg/kg
percentage variation of latency of pain sensation (morphine analgesia; 10'): 53.8%
percentage variation of latency of pain sensation (morphine analgesia; 20'): 85.7 ± 10.0%
percentage variation of latency of pain sensation (morphine analgesia; 30'): 92.0 ± 8.0%
percentage variation of latency of pain sensation (morphine analgesia; 45'): 99.1 ± 1.0%
percentage variation of latency of pain sensation (morphine analgesia; 60'): 91.2 ± 9.0%
percentage variation of latency of pain sensation (morphine analgesia; 90'): 51.2%
M (10-90) ± SE, mean percentage variation of latency (morphine analgesia): 78.8 ± 21.0%
Power ratio with respect to morphine alone (morphine analgesia): 2.64
% increase in biliary flow with respect to controls (biliary flow; 12.5 mg/kg i.v.): +48.5%
% increase in biliary flow with respect to controls (biliary flow; 25 mg/kg i.v.): +63.9%
% increase in biliary flow with respect to controls (biliary flow; 50 mg/kg i.v.): +108.0%
ED50 (biliary flow; Rattus norvegicus, iv, average over 2 hours, read-out: ED50 (dose causing 50% increase in biliary flow)): 19.4 mg/kg
percentage variation in latency time (Effect %) ([3]; 24 h): 53.36%
percentage variation in latency time (Effect %) ([3]; 48 h): 48.17%
percentage variation in latency time (Effect %) ([3]; 72 h): 53.67%
percentage variation in latency time (Effect %) ([3]; 96 h): 31.56%
percentage variation in latency time (Effect %) ([3]; 120 h): 41.67%
percentage variation in latency time (Effect %) ([3]; 144 h): 14.48%
percentage variation in latency time (Effect %) ([3]; 168 h): 13.75%
percentage variation in latency time (Effect %) ([3]; time 0): 72.15%
average latency, Tail Flick [4, 6]: 7.5 ± 0.3 s
average latency, Tail Flick [4, 7]: 5.34 ± 0.46 s
average latency, Tail Flick [4, 8]: 3.88 ± 0.29 s
average latency, Tail Flick [4, 9]: 8.48 ± 0.62 s
average latency, Tail Flick [4, 10]: 6.42 ± 0.21 s
average latency, Tail Flick [4, 11]: 4.98 ± 0.36 s
analgesic activity, Tail Flick [5, 12]: 5.7
analgesic activity, Tail Flick [5, 13]: 44.6
analgesic activity, Tail Flick [5, 14]: 32.3
analgesic activity, Tail Flick [5, 15]: 30.1
analgesic activity, Tail Flick [5, 16]: 24.5
analgesic activity, Tail Flick [5, 17]: 72.
MEAN analgesic activity, Tail Flick [5, 18]: 24.1
analgesic activity, Tail Flick [5, 19]: 16.5
analgesic activity, Tail Flick [5, 20]: 62.5
analgesic activity, Tail Flick [5, 21]: 64.1
analgesic activity, Tail Flick [5, 22]: 45.4
analgesic activity, Tail Flick [5, 23]: 45.3
analgesic activity, Tail Flick [5, 24]: 16.3
MEAN analgesic activity, Tail Flick [5, 25]: 41.7

CCCCN(CCCC)C(=O)CCC(NC(=O)c1ccc(Cl)c(Cl)c1)C(=O)O [Compound D-2]
ED50 [2]: 50.7 mg/kg
percentage variation of latency of pain sensation (morphine analgesia; 10'): 85.6 ± 14.0%
percentage variation of latency of pain sensation (morphine analgesia; 20'): 98.1 ± 2.0%
percentage variation of latency of pain sensation (morphine analgesia; 30'): 95.9 ± 4.0%
percentage variation of latency of pain sensation (morphine analgesia; 45'): 96.6 ± 3.0%
percentage variation of latency of pain sensation (morphine analgesia; 60'): 95.5 ± 3.0%
percentage variation of latency of pain sensation (morphine analgesia; 90'): 87.5 ± 6.0%
M (10-90) ± SE, mean percentage variation of latency (morphine analgesia): 93.2 ± 5.3%
Power ratio with respect to morphine alone (morphine analgesia): 3.12
percentage variation in latency time (Effect %) ([3]; 24 h): 45.73%
percentage variation in latency time (Effect %) ([3]; 48 h): 59.50%
percentage variation in latency time (Effect %) ([3]; 72 h): 51.52%
percentage variation in latency time (Effect %) ([3]; 96 h): 43.40%
percentage variation in latency time (Effect %) ([3]; 120 h): 37.60%
percentage variation in latency time (Effect %) ([3]; 144 h): 21.43%
percentage variation in latency time (Effect %) ([3]; 168 h): 29.75%
percentage variation in latency time (Effect %) ([3]; time 0): 74.14%
average latency, Tail Flick [4, 6]: 9.2 ± 0.53 s
average latency, Tail Flick [4, 7]: 7.0 ± 0.86 s
average latency, Tail Flick [4, 8]: 5.28 ± 0.64 s
average latency, Tail Flick [4, 9]: 9.6 ± 0.46 s
average latency, Tail Flick [4, 10]: 7.24 ± 0.58 s
average latency, Tail Flick [4, 11]: 5.08 ± 0.52 s
analgesic activity, Tail Flick [5, 12]: 34.9
analgesic activity, Tail Flick [5, 13]: 54.0
analgesic activity, Tail Flick [5, 14]: 45.5
analgesic activity, Tail Flick [5, 15]: 27.5
analgesic activity, Tail Flick [5, 16]: 23.5
analgesic activity, Tail Flick [5, 17]: 14.9
MEAN analgesic activity, Tail Flick [5, 18]: 33.4
analgesic activity, Tail Flick [5, 19]: 38.2
analgesic activity, Tail Flick [5, 20]: 53.7
analgesic activity, Tail Flick [5, 21]: 52.6
analgesic activity, Tail Flick [5, 22]: 38.5
analgesic activity, Tail Flick [5, 23]: 33.7
analgesic activity, Tail Flick [5, 24]: 26.3
MEAN analgesic activity, Tail Flick [5, 25]: 40.5
